Source: PMC6062138, “2,4-Diaminothieno[3,2-d]pyrimidines, a new class of anthelmintic with activity against adult and egg stages of whipworm” (PLoS Neglected Tropical Diseases, 2018)
Where two headings read alike, the source gives them in different places.

Experiments:
ex vivo T. muris adults [1] = experiment: T. muris ex vivo adult motility (paralysis) assay; design: species or system Trichuris muris; conditions: for EC50: Trichuris muris; for Activity in hit confirmation and expansion motility screen: library material (DMSO solution), 100μM
Protocol: T. muris worms were cultured using severe combined immune deficiency (SCID) mice, at the Biological Services Facility at the University of Manchester. Male and female mice were infected with 200 infective embryonated T. muris eggs via oral gavage. Thirty-five days later, the mice were sacrificed. Adult T. muris were obtained from the intestine as previously described. Worms were maintained in Roswell Park Memorial Institute (RPMI) 1640 media supplemented with penicillin (500 U/mL) and streptomycin (500 μg/mL) at approximately 37°C and studied on the same day.
Individual adult worms were added to wells containing 75 μL of RPMI-1640 medium, penicillin (500 U/mL), streptomycin (500 μg/mL) plus 1% v/v final concentration of dimethylsulfoxide (DMSO) or compound dissolved in DMSO. Plates were incubated at 37°C, 5% CO2. Motility was determined after 24 hours.
An automated system was used to quantify worm movement. An earlier version of this system has been previously described. Two hundred frame movies of the whole plate were recorded at 10 frames per second and then motility determined by an algorithm based on thresholding pixel variance over time. For the hit confirmation and expansion assays, library material was used at a final concentration of 100μM. Dose-response curves were calculated with the four factor log-logistic model using the R package drc or using GraphPad Prism.

C. elegans N2 [2] = experiment: C. elegans growth assay; design: species or system Caenorhabditis elegans; conditions: synchronised L1, 5 days at 20°C, EC50 estimate ± standard error
Protocol: A mixed-stage C. elegans N2 population was obtained by liquid culture (20°C) according to standard methods. It was then bleached to obtain an egg population with 1.5 mL 4M NaOH, 2.4 mL NaOCl, 2.1 mL water, washed three times, and allowed to hatch in 50 mL S-basal buffer at 20°C overnight to obtain a synchronised L1 population. For the growth assay, 49 μL of S-complete buffer and 1 μL of DMSO or DMSO plus compound were added to each well of 96-well plates. 50 μL of a worm suspension (approximately 20 synchronised L1 worms, 1% w/v E. coli HB101 in S-complete buffer) were then added to each well. Plates were incubated at 20°C before imaging 5 days later. Worm movement was stimulated by inserting and removing a 96-well PCR plate into/from the wells of the assay plate, and then whole plate 200 frame movies were recorded at 30 frames per second. Growth was quantified as a correlate of movement using the same automated system described earlier, which estimates movement for each well by categorising pixels as imaging movement if their variance is greater the mean plus one standard deviation of the variances of all the pixels on the plate.

[3] = test system: CMT-93 rectal epithelial cells; experiment: WST-8 cytotoxicity assay; format: cell-based; conditions: Mus musculus, CMT93; CMT-93 cells, 72 hours, max 100 μM, n = 8, 95% confidence interval in parentheses
Protocol: (§1) The mouse rectal epithelial cell line CMT-93 (LGC Promochem, Teddington, United Kingdom) was used for these studies. The WST-8 and neutral red cytotoxicity assays were performed as described. Briefly, cells were cultured with test compounds, chlorpromazine positive control or DMSO alone (final compound concentrations of 0 to 100 μM) for 72 hours. The WST-8 assay was then carried out using the Cell Counting Kit– 8 (Sigma Aldrich # 96992) with an incubation time of 2 hours. This time was chosen according to the manufacturer’s instructions and was such that the absorbance of the WST-8 formazan dye was within the linear range of the microplate reader. Following this assay, the medium was exchanged, and the ability of the cells to take up the dye neutral red (concentration 33 μg/mL, incubation time 2 hours) was determined using a microplate reader (absorbance at 540 nm). Results were analysed using GraphPad Prism and fitted using a log-logistic model.

[4] = test system: CMT-93 rectal epithelial cells; experiment: Neutral red cytotoxicity assay; format: cell-based; conditions: Mus musculus, CMT93; CMT-93 cells, 72 hours, max 100 μM, n = 8, 95% confidence interval in parentheses
Protocol: as §1

[5] = test system: unembryonated T. muris eggs; experiment: Embryonation assay; design: species or system Trichuris muris; conditions: for Percentage of unembryonated eggs compared to the DMSO control: duration of embryonation (56–60 days)
Protocol: One hundred unembryonated eggs were treated with water, 1% v/v DMSO in water or test compounds at a final concentration of 100 μM (unless stated) with 1% v/v DMSO, in the dark at 26°C, either for 56 days or for shorter periods as described. Images were collected on an Olympus BX63 upright microscope using a 60x / 1.42 PlanApo N (Oil) objective and captured and white-balanced using an DP80 camera (Olympus) in monochrome mode through CellSens Dimension v1.16 (Olympus). Images were then processed and analysed using the image analysis platform Fiji.

ex vivo T. muris adults [6] = conditions: read-out: EC50 T. muris paralysis assay; cited from earlier work
C. elegans N2 [7] = test system: C. elegans N2; design: method as in PMID 29223747; conditions: read-out: EC50 C. elegans growth assay; cited from earlier work
T. trichiura = conditions: cited from earlier work; for Cure rate, T. trichiura infection: single dose; for Cure rate against whipworm: single doses as used in MDA, no reference given
[8] = test system: embryonated T. muris eggs; experiment: In vitro hatching of compound-soaked embryonated eggs in E. coli culture; design: species or system Trichuris muris; conditions: eggs soaked 14 days at 100 μM, then 24 hours in E. coli culture at 37°C
Protocol: (§2) 100 infective embryonated eggs were incubated in deionised water with 1% v/v DMSO or test compounds at a final concentration of 100 μM in 1% v/v DMSO for 14 days at room temperature in the dark. Eggs were then washed and resuspended in deionised water. For in vitro hatching assays 100 eggs were added to 1 mL of E. coli bacterial culture grown in LB broth overnight at 37°C shaking at 200 rpm. Egg-bacterial cultures were incubated for 24 hours at 37°C, 5% CO2 and hatching determined following blinding by visual examination under a dissecting microscope. For in vivo hatching assays, 40 eggs were counted under a dissecting microscope and given to a SCID mouse in 200 μL water. At day 15 post-infection mice were culled and the number of L2 larvae present in the caecae and colon enumerated in a blinded manner under a dissecting microscope.

[9] = test system: embryonated T. muris eggs; experiment: In vivo hatching and infection establishment of treated eggs in SCID mice; design: species or system Trichuris muris in SCID mice; conditions: eggs soaked 14 days in 100 μM; SCID mice given 40 eggs; L2 larvae counted day 15 post infection; batch normalised to DMSO
Protocol: as §2
The experiment was conducted in two ‘experimental batches’. For batch one there were 5 mice in each of the DMSO and OX02926 groups. For batch two there were 9 mice in each of the DMSO and OX02926 groups. The raw data (number of worms that established infection in each mouse) are shown separated by batch and treatment in the S1 Fig.
To analyse the data we used a two-way ANOVA (worm number ~ treatment * batch). […] There was no significant interaction between treatment and batch [F(1,24) = 0.296, P = 0.59153]. […]

[10] = design: method as in PMID 25370471, PMID 26787751; conditions: solid tumors; cited from earlier work
[11] = shown for comparison in Table 1, read-out: Adult Trichuris paralysis assay EC50

Compound	EC50 (ex vivo T. muris adults [1]; [11]) [µM]	Activity in hit confirmation and expansion motility screen (ex vivo T. muris adults [1])	EC50 (C. elegans N2 [2]; Caenorhabditis elegans, 120 h) [µM]	EC50 [3] [µM]	EC50 [4] [µM]	EC50 (ex vivo T. muris adults [6]) [µM]	other results
CNc1nc(NCCOc2ccccc2Cl)c2sccc2n1 [OX03147, N^4-(2-(2-chlorophenoxy)ethyl)-N^2-methylthieno[3,2-d]pyrimidine-2,4-diamine]	44	active	11 ± 2	37	21	–	Larval length after shortened exposure ([5]; 100 μM, 26°C, 2–4 week and 4–6 week groups): not affected; Percentage of unembryonated eggs compared to the DMSO control ([5]; 100 μM, 26°C): significant increase; Larval length after shortened exposure ([5]; 100 μM, 26°C, soaking weeks 0–3, P = 0.0076 vs DMSO): clear larval stunting; Proportion of unembryonated eggs after shortened exposure ([5]; 100 μM, 26°C, weeks 0–2, 0–3, 2–4 or 4–6 of embryonation): no increase; Morphology of L1 larvae within the egg after shortened exposure ([5]; 100 μM, 26°C, weeks 0–3, 2–4 or 4–6): clear morphological alterations; Drug dose at which increased number of unembryonated eggs was detected ([5]; concentration response, both 26°C and room temperature, 56 days): 100 µM; Effect on egg morphology / larval length at low concentration ([5]; concentrations as low as 1 μM, 26°C, 56 days): significant larval stunting
COC(=O)Nc1nc2ccc(C(=O)c3ccccc3)cc2[nH]1 [Mebendazole]	–	–	–	–	–	> 600	EC50 (C. elegans N2 [7]): 1.1 ± 0.2 µM; Cure rate, T. trichiura infection (T. trichiura): 36%; Cure rate against whipworm (T. trichiura): less than 40%
CNc1nc(NCCOc2ccccc2)c2sccc2n1 [OX02925, N^2-Methyl-N^4-(2-phenoxyethyl)thieno[3,2-d]pyrimidine-2,4-diamine]	47	active	82 ± 9	75	29	–	Percentage of unembryonated eggs compared to the DMSO control ([5]; 100 μM, 26°C): significant increase
COc1ccccc1CNc1nc(NCCOc2ccccc2Cl)c2sccc2n1 [OX03143, N^4-(2-(2-chlorophenoxy)ethyl)-N^2-(2-methoxybenzyl)thieno[3,2-d]pyrimidine-2,4-diamine]	> 80	active	7 ± 1	15	5	–	–
Cc1ccc(CN2C(=O)COCc3cc(-c4ccncc4)ccc32)cc1 [OX02983]	–	–	–	–	–	50 ± 13	–
c1ccc([C@H]2CN3CCSC3=N2)cc1 [Levamisole]	–	–	–	–	–	8 ± 3	EC50 (C. elegans N2 [7]): 5 ± 1 µM
COCCNc1nc(NCCOc2ccccc2Cl)c2sccc2n1 [OX02926, N^4-(2-(2-Chlorophenoxy)ethyl)-N^2-(2-methoxyethyl)thieno[3,2-d]pyrimidine-2,4-diamine]	27	confirmed this activity	82 ± 37	43	21	–	EC50 (ex vivo T. muris adults [1]; equivalent of 27μM, read-out: EC50 adult whipworm motility assay, mass equivalent): 10.2 µg/mL; EC50 (C. elegans N2 [2]): 87 ± 37 µM; In vitro hatching of treated embryonated eggs compared to DMSO control [8]: significant decrease; Reduction of the burden of worms in vivo [9]: ~40%; melting point: 69 to 97 °C
CS(=O)(=O)N1CCN(Cc2cc3nc(-c4cccc5[nH]ncc45)nc(N4CCOCC4)c3s2)CC1 [Pictilisib, pictilisib]	–	–	–	–	–	–	Tolerability in Phase I trials [10]: tolerated
CCCSc1ccc2nc(NC(=O)OC)[nH]c2c1 [Albendazole]	–	–	–	–	–	> 800	Cure rate, T. trichiura infection (T. trichiura): 28%; Cure rate against whipworm (T. trichiura): less than 40%
Cc1c(CN2CCN(C(=O)[C@H](C)O)CC2)sc2c(N3CCOCC3)nc(-c3cnc(N)nc3)nc12 [apitolisib]	–	–	–	–	–	–	Tolerability in Phase I trials [10]: tolerated
